{
  "source": "ChEMBL document CHEMBL1152766",
  "about": "“Bioactive constituents from the leaves of Clinacanthus nutans Lindau” (Bioorg Med Chem, 2009)",
  "key": {"Human alphaherpesvirus 1 [1]": {"tested_on": "Human alphaherpesvirus 1", "test": "Antiviral activity against 1000 PFU/ml infectious dose of HSV1 strain F infected in african green monkey Vero cells assessed as inhibition of virus in post-viral entry step at 6.21 uM after 72 hrs by plaque reduction assay", "assay_type": "functional", "design": "scale not given: the % may be the effect or the level left"}, "[2]": {"test": "Cytotoxicity against african green monkey Vero cells after 72 hrs", "assay_type": "cell-based", "details": "chlorocebus sabaeus, read-out: MNCC"}, "Human alphaherpesvirus 1 [3]": {"tested_on": "Human alphaherpesvirus 1", "test": "Antiviral activity against 1000 PFU/ml infectious dose of HSV1 strain F infected in african green monkey Vero cells after 72 hrs by plaque reduction assay", "assay_type": "functional, organism-based", "details": "Human alphaherpesvirus 1, strain F"}, "Human alphaherpesvirus 1 [4]": {"tested_on": "Human alphaherpesvirus 1", "test": "Antiviral activity against 1000 PFU/ml infectious dose of HSV1 strain F infected in african green monkey Vero cells assessed as inhibition of virus in pre-viral entry step at 6.21 uM after 72 hrs by plaque reduction assay", "assay_type": "functional", "design": "scale not given: the % may be the effect or the level left"}, "Human alphaherpesvirus 1 [5]": {"tested_on": "Human alphaherpesvirus 1", "test": "Antiviral activity against 1000 PFU/ml infectious dose of HSV1 strain F infected in african green monkey Vero cells assessed as inhibition of virus in post-viral entry step at 5.89 uM after 72 hrs by plaque reduction assay", "assay_type": "functional", "design": "scale not given: the % may be the effect or the level left"}, "Human alphaherpesvirus 1 [6]": {"tested_on": "Human alphaherpesvirus 1", "test": "Antiviral activity against 1000 PFU/ml infectious dose of HSV1 strain F infected in african green monkey Vero cells assessed as inhibition of virus in pre-viral entry step at 5.89 uM after 72 hrs by plaque reduction assay", "assay_type": "functional", "design": "scale not given: the % may be the effect or the level left"}},
  "data": [
    {"smiles": "C=Cc1c(C)c2cc3nc(c4c5[nH]c(cc6nc(cc1[nH]2)C(C)=C6CC)c(C)c5C(=O)[C@]4(O)C(=O)OC)[C@@H](CCC(=O)O/C=C(\\C)CCCC(C)CCCC(C)CCCC(C)C)[C@@H]3C", "note": "(some centres not stated)", "values": [
      {"measurement": "Activity", "setting": "Human alphaherpesvirus 1 [1]", "value": 30, "unit": "%"},
      {"measurement": "MNTC at 72 h", "setting": "[2]", "value": 6.21, "unit": "µM"},
      {"measurement": "IC50", "setting": "Human alphaherpesvirus 1 [3]", "value": 3.11, "unit": "nM"},
      {"measurement": "Activity", "setting": "Human alphaherpesvirus 1 [4]", "value": 100, "unit": "%"}
    ]},
    {"smiles": "C=Cc1c(C)c2cc3nc(c4c5[nH]c(cc6nc(cc1[nH]2)C(C=O)=C6CC)c(C)c5C(=O)[C@@]4(O)C(=O)OC)[C@@H](CCC(=O)O/C=C(\\C)CCCC(C)CCCC(C)CCCC(C)C)[C@@H]3C", "note": "(some centres not stated) [13(2)-HYDROXY-(13(2)-R)-PHAEOPHYTIN B]", "values": [
      {"measurement": "Activity", "setting": "Human alphaherpesvirus 1 [5]", "value": 30, "unit": "%"},
      {"measurement": "MNTC at 72 h", "setting": "[2]", "value": 5.89, "unit": "µM"},
      {"measurement": "Activity", "setting": "Human alphaherpesvirus 1 [6]", "value": 100, "unit": "%"},
      {"measurement": "IC50", "setting": "Human alphaherpesvirus 1 [3]", "value": 1.96, "unit": "nM"}
    ]},
    {"smiles": "C=Cc1c(C)c2cc3nc(c4c5[nH]c(cc6nc(cc1[nH]2)C(C)=C6CC)c(C)c5C(=O)[C@@]4(O)C(=O)OC)[C@@H](CCC(=O)O/C=C(\\C)CCCC(C)CCCC(C)CCCC(C)C)[C@@H]3C", "note": "(some centres not stated)", "values": [
      {"measurement": "Activity", "setting": "Human alphaherpesvirus 1 [1]", "value": 30, "unit": "%"},
      {"measurement": "MNTC at 72 h", "setting": "[2]", "value": 6.21, "unit": "µM"},
      {"measurement": "IC50", "setting": "Human alphaherpesvirus 1 [3]", "value": 3.11, "unit": "nM"},
      {"measurement": "Activity", "setting": "Human alphaherpesvirus 1 [4]", "value": 100, "unit": "%"}
    ]}
  ]
}
